Reference: article PMC6070649, “The solute transport and binding profile of a novel nucleobase cation symporter 2 from the honeybee pathogen Paenibacillus larvae” (FEBS Open Bio, 2018)

B1: PlUacP (P. larvae uric acid permease-like protein) (Paenibacillus larvae subsp. larvae DSM 25430) (protein)
chain: MRKSKVLTLGFQHVLAMYAGAVIVPLIVGSSLKLNAEQLAYLVSIDLLTCGIATLLQVWRNKFFGIGLPVMLGCTFTAVGPMIAIGSEYGMPAIYGSVLASGLFLALFAGFFGKLARFFPPIVTGSVVTIIGITLIPVAVQDMGGGQGSADFGSLSNLALSFGVLLFIILANRFFTGFIRAISILLGLIFGTIAGAFMGKVDIGPLLDASWFHGIHPFYFGFPTFHLPSILTMTLVAIVSVMESTGVFVALGKITEKELTADDLKRGYRSEGLASILGSIMNSFPYTTYSQNVGLIQISKVKSRDVVITAGFILVILGFMPKIAALTLLIPTAVLGGAMIAMFGMVVSSGIKMLGAIDLNNHENLLIIACSVSVGLGVTVAPNLFDHLPDSIKILTSNGIVAGSLTAILMNFLFTVGRKKQDESHASAENVHAA

What was measured:
[1] = target: T1, PlUacP (P. larvae uric acid permease-like protein) (Paenibacillus larvae, UniProt V9VZQ8); test: competition with [3H]-adenine uptake in yeast; format: cell-based; details: competitive; 1 μM [2,8-3H]-adenine, 1 mM unlabelled competitor, S. cerevisiae RG191, 5 min
T1 construct: gene pbuX
T1 sequence (V9VZQ8 1-434): B1 chain

[2] = substrate: Nc1ncnc2nc[nH]c12; test: cells, lysate or membranes; details: labelled compound [2,8-3H]-adenine 0.1-30 μM, S. cerevisiae RG191, 10 min, 100 mM citrate pH 3.5, 1% glucose, Lineweaver-Burk

Molecule | % adenine uptake at 1 mM competitor [1] | Km [2] [µM]
O=c1[nH]cnc2nc[nH]c12 [hypoxanthine] | guanine, cytosine, hypoxanthine, xanthine, uric acid, and uracil all compete with adenine | 
O=c1[nH]c(=O)c2[nH]cnc2[nH]1 [xanthine] | guanine, cytosine, hypoxanthine, xanthine, uric acid, and uracil all compete with adenine | 
Nc1cc[nH]c(=O)n1 [cytosine] | guanine, cytosine, hypoxanthine, xanthine, uric acid, and uracil all compete with adenine | 
Nc1nc2[nH]cnc2c(=O)[nH]1 [guanine] | guanine, cytosine, hypoxanthine, xanthine, uric acid, and uracil all compete with adenine | 
O=c1[nH]c(=O)c2[nH]c(=O)[nH]c2[nH]1 [uric acid] | guanine, cytosine, hypoxanthine, xanthine, uric acid, and uracil all compete with adenine | 
B1 |  | 7.04 ± 0.18
